Data published in ChEMBL document CHEMBL1159185, “Metabolism and structure activity data based drug design: discovery of () SCH 53079 an analog of the potent cholesterol absorption inhibitor () SCH 48461” (1996).

Key:
[1] = system: Cricetinae gen. sp.; experiment: Compound was evaluated for the reduction of liver cholesterol ester levels in the cholesterol-fed Hamster model at 50 mg/kg; type: functional
[2] = system: Cricetinae gen. sp.; experiment: Compound was evaluated for the reduction of liver cholesterol ester levels in the cholesterol-fed Hamster model at 50 mpk; type: functional
[3] = system: Cricetinae gen. sp.; experiment: Compound was evaluated for the reduction of liver cholesterol ester levels in the cholesterol-fed Hamster model.; type: functional
[4] = system: Monkey; experiment: Compound was evaluated for the reduction of liver cholesterol ester levels in the cholesterol-fed rhesus monkey model.; type: functional, Cercopithecidae
[5] = species on record: Rattus norvegicus; experiment: Compound was evaluated for the plasma concentration in female rats at 8 hr after post dose; type: functional, organism-based
[6] = species on record: Rattus norvegicus; experiment: Compound was evaluated for the plasma concentration in female rats at 4 hr after post dose; type: functional, organism-based
[7] = species on record: Rattus norvegicus; experiment: Compound was evaluated for the plasma concentration in female rats at 2 hr after post dose; type: functional, organism-based
[8] = species on record: Rattus norvegicus; experiment: Compound was evaluated for the plasma concentration in female rats at 24 hr after post dose; type: functional, organism-based
[9] = species on record: Rattus norvegicus; experiment: Compound was evaluated for the plasma concentration in female rats at 1 hr after post dose; type: functional, organism-based

COc1ccc([C@@H]2[C@@H](CCOc3ccc([N+](=O)[O-])cc3)C(=O)N2c2ccccc2)cc1 gave a Reduction [1] of -31%.
COc1ccc(OCC[C@H]2C(=O)N(c3ccccc3)[C@@H]2c2ccc(OC)cc2)cc1 showed a Reduction [1] of -82%.
Work on COc1ccc([C@@H]2[C@@H](CCOc3ccc(F)cc3F)C(=O)N2c2ccccc2)cc1 yielded a Reduction [1] of -88%.
In the case of COc1ccc([C@@H]2[C@@H](CCOc3ccccc3)C(=O)N2c2ccc(OC)cc2)cc1, the Reduction [1] is reported as -39%.
COc1ccc([C@@H]2[C@@H](CCOc3ccc4c(c3)CCC4)C(=O)N2c2ccccc2)cc1 (racemic) showed a Reduction [1] of -46%.
COc1ccc([C@@H]2[C@@H](CCOc3ccc(I)cc3)C(=O)N2c2ccccc2)cc1 (racemic) gave a Reduction [1] of -47%.
COc1ccc([C@@H]2[C@@H](CCOc3ccc(F)cc3)C(=O)N2c2ccc(OC)cc2)cc1 (racemic) gave a Reduction [1] of -93%.
Work on COc1ccc([C@@H]2[C@@H](CCCc3ccccc3)C(=O)N2c2ccc(OC)cc2)cc1 (racemic) [SCH-48461] yielded a Reduction [2] of -78%.
With COc1ccc([C@@H]2[C@@H](CCOc3ccc(F)cc3)C(=O)N2c2ccccc2)cc1 (stereo in doubt; (+)4) the Reduction ([1]; 50 mg/kg) was -28%.
With COc1ccc([C@@H]2[C@@H](CCOc3ccc(F)cc3)C(=O)N2c2ccccc2)cc1 (stereo in doubt; (+/-)4) the Reduction ([1]; 50 mg/kg) was -95%.
Work on COc1ccc([C@@H]2[C@@H](CCOc3ccc(F)cc3)C(=O)N2c2ccccc2)cc1 (stereo in doubt; (-)4) [listing 1 of 2 here] yielded an ED50 [3] of 2.2 mg/kg, a Reduction ([1]; 50 mg/kg) of -93% and an ED100 [4] of 0.3 MPK.
For COc1ccc([C@@H]2[C@@H](CCOc3ccc(F)cc3)C(=O)N2c2ccccc2)cc1 (stereo in doubt; (-)4) [listing 2 of 2 here], the Plasma level [5] was 239 ng/mL, the Plasma level [6] was under 30 ng/mL and the Plasma level [7] was 41.1 ng/mL. The Plasma level [8] was under 30 ng/mL and the Plasma level [9] was over 30 ng/mL.
For COc1ccc([C@@H]2[C@@H](CCCc3ccccc3)C(=O)N2c2ccc(OC)cc2)cc1 [SCH-48461], the ED100 [4] was 1 MPK.
